This note sets out measurements from patent publication US8084649B2, “Herbicides” (Syngenta Crop Protection, inc., priority 2007, dated 2011).

Common to all, as to type: in vivo
In assay [1] the test system is Setaria faberi (SETFA). In words: Post-emergence herbicidal activity, glasshouse pot test. The settings on record: evaluated after 14 or 15 days. The essentials:
(§1)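 Damage rated visually on a 0–100 scale (100 = total damage) 14 or 15 days after spraying. Pots of sterilised standard soil; plants treated post-emergence after 10 days glasshouse cultivation with an aqueous spray from an acetone/Emulsogen EL/N-methylpyrrolidone/dipropylene glycol monomethyl ether/X-77 formulation.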

The subject of assay [2] is Alopecurus myosuroides (ALOMY). The assay is described as above. The settings on record: evaluated after 14 or 15 days. The essentials:
as §1

Assay [3] deals with Avena fatua (AVEFA). The assay is described as above. The settings on record: evaluated after 14 or 15 days. The essentials: as §1
Assay [4] has as its system Echinochloa crus-galli (ECHCG). Described as above. The settings on record: evaluated after 14 or 15 days. The essentials:
as §1

Assay [5] deals with Lolium perenne (LOLPE). The assay is described as above. The settings on record: evaluated after 14 or 15 days. The essentials:
as §1

The test system of assay [6] is Digitaria sanguinalis (DIGSA). The description is as above. The settings on record: evaluated after 14 or 15 days. The essentials: as §1
Assay [7] deals with Setaria faberi (SETFA). In words: Pre-emergence herbicidal activity, glasshouse pot test. The settings on record: rate 500 g/ha, evaluated after 20 days; for pest or weed control at 500 g/ha: Setaria faberi, 480 h, read-out: Pre-emergence activity, SETFA (100=total damage to plant; 0=no damage to plant). The essentials:
(§2)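 Pre-emergence application: sprayed one day after seeding into pots of sterilised standard soil. After 20 days' growth in a greenhouse, percent damage was scored visually, 0 meaning unharmed and 100 total damage.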

Assay [8] relates to Alopecurus myosuroides (ALOMY). Described as above. Conditions: rate 500 g/ha, evaluated after 20 days; for pest or weed control at 500 g/ha: Alopecurus myosuroides, 480 h, read-out: Pre-emergence activity, ALOMY (100=total damage to plant; 0=no damage to plant). The essentials: as §2
For assay [9], the system named is Avena fatua (AVEFA). The description is as above. Conditions: rate 500 g/ha, evaluated after 20 days; for pest or weed control at 500 g/ha: Avena fatua, 480 h, read-out: Pre-emergence activity, AVEFA (100=total damage to plant; 0=no damage to plant). The essentials: as §2
In assay [10] the test system is Echinochloa crus-galli (ECHCG). Described as above. Conditions: rate 500 g/ha, evaluated after 20 days; for pest or weed control at 500 g/ha: Echinochloa crus-galli, 480 h, read-out: Pre-emergence activity, ECHCG (100=total damage to plant; 0=no damage to plant). The essentials:
as §2

The subject of assay [11] is Lolium perenne (LOLPE). Described as above. The settings on record: rate 500 g/ha, evaluated after 20 days; for pest or weed control at 500 g/ha: Lolium perenne, 480 h, read-out: Pre-emergence activity, LOLPE (100=total damage to plant; 0=no damage to plant). The essentials: as §2
In assay [12] the test system is Digitaria sanguinalis (DIGSA). The description is as above. Conditions: rate 500 g/ha, evaluated after 20 days; for pest or weed control at 500 g/ha: Digitaria sanguinalis, 480 h, read-out: Pre-emergence activity, DIGSA (100=total damage to plant; 0=no damage to plant). The essentials: as §2
The mark [13] stands for this setting: Setaria faberi, rate 500 g/ha, read-out: Post-emergence activity, SETFA (100=total damage to plant; 0=no damage to plant).
Setting [14] is: Alopecurus myosuroides, rate 500 g/ha, read-out: Post-emergence activity, ALOMY (100=total damage to plant; 0=no damage to plant).
Where [15] appears, read: Avena fatua, rate 500 g/ha, read-out: Post-emergence activity, AVEFA (100=total damage to plant; 0=no damage to plant).
Setting [16] is: Echinochloa crus-galli, rate 500 g/ha, read-out: Post-emergence activity, ECHCG (100=total damage to plant; 0=no damage to plant).
The mark [17] stands for this setting: Lolium perenne, rate 500 g/ha, read-out: Post-emergence activity, LOLPE (100=total damage to plant; 0=no damage to plant).
[18] abbreviates: Digitaria sanguinalis, rate 500 g/ha, read-out: Post-emergence activity, DIGSA (100=total damage to plant; 0=no damage to plant).

Take `CCc1cc(C)cc(C)c1C1=C(O)CC2(CCOCC2)CC1=O` [Compound T27]: the pest or weed control at 500 g/ha was determined as 100% in the assay on Setaria faberi (SETFA) [1] (setting [13]); 80% in [2] (setting [14]); 90% in the assay on Avena fatua (AVEFA) [3] (setting [15]); 100% in assay [4] (setting [16]); 80% with Lolium perenne (LOLPE) [5] (setting [17]); 90% in assay [6] (setting [18]). Further, the pest or weed control at 500 g/ha (with Setaria faberi (SETFA) [7]; in [8]; with Avena fatua (AVEFA) [9]; in assay [10]; with Lolium perenne (LOLPE) [11]; in [12]) was 100% throughout.
As to `CCc1cc(C)cc(CC)c1C1=C(O)CC(CC(C)S(=O)(=O)CC)CC1=O` (stereo not drawn) [Compound T28, 2-(2,6-diethyl-4-methylphenyl)-5-[2-(ethylsulfonyl)propyl]cyclohexane-1,3-dione], the pest or weed control at 500 g/ha with Setaria faberi (SETFA) [1] (setting [13]) turned out to be 90%; in assay [2] (setting [14]) it was 90%; in the assay on Avena fatua (AVEFA) [3] (setting [15]), 100%; in [4] (setting [16]), 100%; in the assay with Lolium perenne (LOLPE) [5] (setting [17]) it was 80%; in assay [6] (setting [18]) it was 100%. The pest or weed control at 500 g/ha with Setaria faberi (SETFA) [7] turned out to be 100%; in assay [8], 70%; in the assay on Avena fatua (AVEFA) [9] it was 100%; in [10] it was 100%; with Lolium perenne (LOLPE) [11], 100%; in [12] it was 100%.
On to `CCc1cc(C)cc(CC)c1C1=C(O)CC(CC(C)S(C)(=O)=O)CC1=O` (stereo not drawn) [Compound T30], for which the pest or weed control at 500 g/ha was 100% in the assay on Setaria faberi (SETFA) [1] (setting [13]); 70% in assay [2] (setting [14]); 90% in the assay with Avena fatua (AVEFA) [3] (setting [15]); 100% in [4] (setting [16]); 80% with Lolium perenne (LOLPE) [5] (setting [17]); 100% in assay [6] (setting [18]). Further, the pest or weed control at 500 g/ha with Setaria faberi (SETFA) [7] was 100%; in assay [8], 80%; with Avena fatua (AVEFA) [9] it was 80%; in assay [10], 100%; in the assay with Lolium perenne (LOLPE) [11] it was 90%; in assay [12] it was 100%.
Regarding `CCc1cc(C)cc(CC)c1C1=C(O)CC(CCS(C)(=O)=O)CC1=O` (stereo not drawn) [Compound T31], the “Post-emergence activity, SETFA (100=total damage to plant; 0=no damage to plant)” value in the assay with Setaria faberi (SETFA) [1] (rate 500 g/ha) is given as 100. The “Post-emergence activity, ALOMY (100=total damage to plant; 0=no damage to plant)” value in [2] (rate 500 g/ha) was found to be 80. Besides, the “Post-emergence activity, AVEFA (100=total damage to plant; 0=no damage to plant)” value in the assay with Avena fatua (AVEFA) [3] (rate 500 g/ha) is 60. Moreover, the “Post-emergence activity, ECHCG (100=total damage to plant; 0=no damage to plant)” value in assay [4] (rate 500 g/ha) was found to be 100. The “Post-emergence activity, LOLPE (100=total damage to plant; 0=no damage to plant)” value in the assay with Lolium perenne (LOLPE) [5] (rate 500 g/ha) was 90. For the same molecule, in assay [6] (rate 500 g/ha), the “Post-emergence activity, DIGSA (100=total damage to plant; 0=no damage to plant)” value was found to be 100. Besides, the “Pre-emergence activity, SETFA (100=total damage to plant; 0=no damage to plant)” value in the assay with Setaria faberi (SETFA) [7] came out at 100. In addition, the “Pre-emergence activity, ALOMY (100=total damage to plant; 0=no damage to plant)” value in assay [8] came out at 80. For the same molecule, in the assay with Avena fatua (AVEFA) [9], the “Pre-emergence activity, AVEFA (100=total damage to plant; 0=no damage to plant)” value worked out at 80. Besides, the “Pre-emergence activity, ECHCG (100=total damage to plant; 0=no damage to plant)” value in assay [10] came out at 100. For the same molecule, the “Pre-emergence activity, LOLPE (100=total damage to plant; 0=no damage to plant)” value with Lolium perenne (LOLPE) [11] is given as 100. Further, the “Pre-emergence activity, DIGSA (100=total damage to plant; 0=no damage to plant)” value in assay [12] is recorded as 100.
For the molecule `CCCSC(C)CC1CC(=O)C(c2c(CC)cc(C)cc2CC)=C(O)C1` (stereo not drawn) [Compound T32], the pest or weed control at 500 g/ha in the assay with Setaria faberi (SETFA) [1] (setting [13]) was found to be 100%; in assay [2] (setting [14]), 80%; in the assay on Avena fatua (AVEFA) [3] (setting [15]) it was 80%; in [4] (setting [16]), 100%; with Lolium perenne (LOLPE) [5] (setting [17]), 90%; in assay [6] (setting [18]), 100%. The pest or weed control at 500 g/ha with Setaria faberi (SETFA) [7] amounted to 100%; in assay [8], 90%; in the assay with Avena fatua (AVEFA) [9] it was 80%; in [10], 100%; in the assay with Lolium perenne (LOLPE) [11] it was 100%; in [12], 100%.
Take `CCCSC(C)CC1CC(=O)C(c2c(C)cc(C)cc2C)=C(O)C1` (stereo not drawn) [Compound T35]: the pest or weed control at 500 g/ha in the assay on Setaria faberi (SETFA) [1] (setting [13]) came out at 50%; in assay [2] (setting [14]) it was 90%; in the assay on Avena fatua (AVEFA) [3] (setting [15]), 70%; in [4] (setting [16]) it was 70%; with Lolium perenne (LOLPE) [5] (setting [17]), 80%; in assay [6] (setting [18]), 70%. Besides, the pest or weed control at 500 g/ha in the assay with Setaria faberi (SETFA) [7] was 80%; in assay [8] it was 90%; with Avena fatua (AVEFA) [9], 80%; in assay [10], 70%; with Lolium perenne (LOLPE) [11], 80%; in assay [12], 90%.
For `CCC[S+]([O-])C(C)CC1CC(=O)C(c2c(CC)cc(C)cc2CC)=C(O)C1` (stereo not drawn) [Compound T37], the pest or weed control at 500 g/ha with Setaria faberi (SETFA) [1] (setting [13]) was 50%; in assay [2] (setting [14]), 90%; in the assay on Avena fatua (AVEFA) [3] (setting [15]) it was 90%; in assay [4] (setting [16]), 100%; with Lolium perenne (LOLPE) [5] (setting [17]) it was 90%; in assay [6] (setting [18]), 80%. For the same molecule, the pest or weed control at 500 g/ha in the assay with Setaria faberi (SETFA) [7] was found to be 100%; in [8], 100%; with Avena fatua (AVEFA) [9] it was 90%; in assay [10] it was 100%; with Lolium perenne (LOLPE) [11], 100%; in [12], 100%.
With `CCc1cc(C)cc(CC)c1C1=C(O)CC(CC(C)SC(C)C)CC1=O` (stereo not drawn) [Compound T38], the pest or weed control at 500 g/ha in the assay on Setaria faberi (SETFA) [1] (setting [13]) stood at 80%; in [2] (setting [14]), 90%; in the assay on Avena fatua (AVEFA) [3] (setting [15]) it was 100%; in [4] (setting [16]), 70%; with Lolium perenne (LOLPE) [5] (setting [17]), 90%; in [6] (setting [18]) it was 70%. Besides, the pest or weed control at 500 g/ha stood at 60% in the assay with Setaria faberi (SETFA) [7]; 90% in assay [8]; 70% in the assay with Avena fatua (AVEFA) [9]; 70% in assay [10]; 100% with Lolium perenne (LOLPE) [11]; 70% in assay [12].
Turning to `Cc1cc(C)c(C2=C(O)CC(CC(C)SC(C)C)CC2=O)c(C)c1` (stereo not drawn) [Compound T39], the pest or weed control at 125 g/ha in the assay on Setaria faberi (SETFA) [1] (Setaria faberi, rate 125 g/ha, read-out: Post-emergence activity, SETFA (100=total damage to plant; 0=no damage to plant)) amounted to 10%; in assay [2] (Alopecurus myosuroides, rate 125 g/ha, read-out: Post-emergence activity, ALOMY (100=total damage to plant; 0=no damage to plant)), 10%; in the assay with Avena fatua (AVEFA) [3] (Avena fatua, rate 125 g/ha, read-out: Post-emergence activity, AVEFA (100=total damage to plant; 0=no damage to plant)) it was 0%; in assay [4] (Echinochloa crus-galli, rate 125 g/ha, read-out: Post-emergence activity, ECHCG (100=total damage to plant; 0=no damage to plant)) it was 20%; in the assay with Lolium perenne (LOLPE) [5] (Lolium perenne, rate 125 g/ha, read-out: Post-emergence activity, LOLPE (100=total damage to plant; 0=no damage to plant)) it was 0%; in assay [6] (Digitaria sanguinalis, rate 125 g/ha, read-out: Post-emergence activity, DIGSA (100=total damage to plant; 0=no damage to plant)), 30%. Further, the pest or weed control at 500 g/ha was determined as 70% in the assay with Setaria faberi (SETFA) [7]; 70% in assay [8]; 70% in the assay with Avena fatua (AVEFA) [9]; 60% in [10]; 80% in the assay with Lolium perenne (LOLPE) [11]; 90% in assay [12].
